Source: US12174198B2, “Methods of characterizing condensate-associated characteristics of compounds and uses thereof” (Dewpoint Therapeutics, Inc., priority 2019, dated 2024)
Structures can show the parent of a compound that is named as a salt.

Assays:
[1] = system: FUS-SNAP condensates versus PGL-3 condensates; assay: Condensate preference: ratio of FUS-SNAP I-in:I-out to PGL-3 I-in:I-out; type: physicochemical; settings: average FUS-SNAP I-in:I-out divided by average PGL-3 I-in:I-out
Method in brief: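 Values compare FUS-SNAP against PGL-3 condensates through their I-in:I-out ratios. Each ratio is the average intensity within the condensates over that outside them, averaged across two separate days.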

[2] = target: T1, FUS-SNAP condensates (Homo sapiens, UniProt P35637); assay: Mass spectrometry-based depletion assay of compound partitioning; type: physicochemical; settings: for Partitioning into FUS-condensates at different compound concentrations (fraction of compound in supernatant): FIG. 8, 0.1 μM, 1 μM and 10 μM, N=3 technical repeats; for Partitioning into FUS-condensates at different compound concentrations (fraction of compound in supernatant) / Measured fraction outside of the FUS-SNAP condensates, single compound test reactions versus mixture of four compounds: 0.01 μM; for Measured fraction outside of the FUS-SNAP condensates, single compound test reactions versus mixture of four compounds: FIG. 9A, 9B, 0.1 μM and 1 μM, triplicate; for Identified partitioning into FUS-condensates: as identified before Example 5; for Ratio of compound concentration in versus compound concentration out, MS-based assay: condensate volume fraction of 1/1000 used
T1 sequence (P35637 1-526): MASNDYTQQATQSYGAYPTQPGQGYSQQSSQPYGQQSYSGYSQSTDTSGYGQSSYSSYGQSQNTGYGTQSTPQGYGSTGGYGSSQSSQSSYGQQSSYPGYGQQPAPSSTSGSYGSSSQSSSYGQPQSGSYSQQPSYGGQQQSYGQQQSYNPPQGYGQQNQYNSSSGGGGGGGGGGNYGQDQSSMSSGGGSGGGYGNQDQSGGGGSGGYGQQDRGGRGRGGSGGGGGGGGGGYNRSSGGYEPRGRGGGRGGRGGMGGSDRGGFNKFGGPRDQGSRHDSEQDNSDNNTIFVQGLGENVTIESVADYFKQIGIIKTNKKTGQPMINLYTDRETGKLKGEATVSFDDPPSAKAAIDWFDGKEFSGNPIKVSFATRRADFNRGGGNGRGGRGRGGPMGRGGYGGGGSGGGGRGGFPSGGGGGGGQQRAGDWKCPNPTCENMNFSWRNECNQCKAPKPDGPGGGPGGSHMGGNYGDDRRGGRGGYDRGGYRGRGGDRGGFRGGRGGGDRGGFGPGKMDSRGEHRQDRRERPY
Procedure: Protein Buffer was prepared (50 mM Tris, pH 7.25, 500 mM KCl, 1 mM DTT, and 5% glycerol). The high salt concentration of Protein Buffer prevents phase separation of macromolecules, e.g., proteins, contained therein. 20 μl aliquots of 70 μM FUS-SNAP protein stock solution were prepared in Protein Buffer. The aliquots of FUS-SNAP protein stock solution were frozen and stored prior to use. Dilution Buffer was prepared (14.7 mM Tris, pH 7.25, and 1 mM DTT).
Aliquots of 70 μM FUS-SNAP protein stock solution were thawed at room temperature for about 10 minutes. The aliquots of protein stock solution appeared clear with no visible precipitates. The thawed protein stock solution were filtered using centrifugation filters (Millipore, UFC30VV00). In brief, the aliquots of protein stock solution were added to a centrifugation filed and centrifuged for 1 minutes at 20,000 rcf at room temperature. The flow-through was collected. The protein concentration of the flow-through was measured and a solution of 33.3 μM FUS-SNAP was prepared by diluting the filtered flow-through and Dilution Buffer.
40 μL test reactions were prepared inside a PCR-tube or a PCR-strip (8 wells; AXYGEN™ 8-Strip PCR Tubes, 0.2 mL) using the following: (i) 34 μL Dilution Buffer, with the test compound at a given concentration, and with DMSO to obtain a final DMSO concentration of 1%, and (ii) 6 μL of 33.3 μM FUS-SNAP filtered protein solution. The final concentration of the 40 reactions were 5 μM FUS-SNAP, 75 mM KCl, 20 mM Tris, 0.75% Glycerol, 1 mM DTT, 1% DMSO, and, for the reactions containing a test compound, the desired test compound concentration.
40 μL reference reactions were prepared as described for the test reactions, however, no test compound was added at this stage.
The test reactions and the reference reactions were incubated for 15 minutes at room temperature. It is expected that within the test reactions, condensed high density liquid droplets (mM concentration of protein) of FUS-SNAP protein (condensed phase) are present in an environment of a lower concentrated solution (μM concentration of protein) of FUS-SNAP dilute phase. Test compounds may or may not partition into the condensed phase causing a reduction of the concentration outside (test compound in the dilute phase) and an increase of the concentration inside (test compound in the droplets). The volume of high density liquid droplets is estimated to be at least 1000-fold smaller than the total volume of the reaction, e.g., 20 nL of a condensed phase in a 20 μL reaction.
Following the 15 minute incubation period, the test reactions and reference reactions were processed to separate condensates (the high density liquid droplets) from the supernatant (the dilute phase). Briefly, the test reactions and reference reactions were centrifuged at 10,000 rcf for 10 minutes in a cooled centrifuge at 20° C. When PCR-strips were sued, the rotor used was the Eppendorf F-45-48-5-PCR. 35 μL of the supernatant from each tube was removed and transferred to a new tube being careful not to disturb the pellets, which contained the condensates.
For the reference reactions, a known amount of the test compound was added to the tube containing the supernatant (which contains protein not associated with a condensate), such that the final compound concentration is the same as the initial concentration of the compound in the test reaction. Reference reactions can also be formed by measuring the amount of protein in the supernatant of a test reaction and replicating a supernatant solution based on the obtained information. The known amount of the compound added to the supernatant from the reference reaction was used to calibrate the mass spectrometry signal of the test reaction.
Additionally, the compound was extracted from the test reactions in order to directly measure the amount of compound in the formed condensates. […]

SMILES | Ratio of FUS-SNAP:PGL-3 [1] | Partitioning into FUS-condensates at different compound concentrations (fraction of compound in supernatant) [2] | Measured fraction outside of the FUS-SNAP condensates, single compound test reactions versus mixture of four compounds [2] | Identified partitioning into FUS-condensates [2] | Ratio of compound concentration in versus compound concentration out, MS-based assay [2]
O=C1OC2(c3ccc(O)cc3Oc3cc(O)ccc32)c2ccccc21 [Dye 6, Fluorescein] | 1.5 | does not partition into the FUS-condensates at any of the tested concentrations | in agreement | not partitioning into FUS-condensates | 1-100
COC(=O)c1ccccc1-c1c2ccc(=N)cc-2oc2cc(N)ccc12.Cl [Dye 14, Rhodamine 123] | 1.2 | – | – | – | 1-100
CCN(CC)c1ccc2c(-c3ccccc3C(=O)O)c3ccc(=[N+](CC)CC)cc-3oc2c1 [Dye 16, Rhodamine B] | 3.0 | – | in agreement | – | 666
O=C([O-])c1ccccc1C1=c2cc3c4c(c2Oc2c1cc1c5c2CCCN5CCC1)CCC[N+]=4CCC3 [Dye 17, Rhodamine 101 inner salt] | 3.2 | partition into the FUS-condensates at lower compound concentrations | – | partitioning into FUS-condensates | >8,000
N#CC1=c2cc3c4c(c2Oc2c1cc1c5c2CCCN5CCC1)CCC[N+]=4CCC3 [Dye 18, Rhodamine 800] | 3.2 | – | – | – | >2,000
